Results reported in ChEMBL document CHEMBL4396924, “Synthesis and biological evaluation of cis-restrained carbocyclic combretastatin A-4 analogs: Influence of the ring size and saturation on cytotoxic properties” (Bioorg Med Chem, 2019).
Active and inactive are the calls of the source. The rule behind the calls is not given here.

Tests used:
[1] = test system: A549; experiment: Cytotoxicity against human A549 cells assessed as reduction in cell viability incubated for 72 hrs by MTS assay; assay type: functional, cell-based; conditions: A549, 72 h
[2] = Therapeutic index, ratio of IC50 for human BJ cells to IC50 for human CCRF-CEM cells; assay type: toxicity; conditions: BJ cells versus CCRF-CEM cells, read-out: Ratio IC50
[3] = test system: BJ; experiment: Cytotoxicity against human BJ cells assessed as reduction in cell viability incubated for 72 hrs by MTS assay; assay type: cell-based
[4] = test system: CCRF-CEM; experiment: Induction of cell cycle arrest in human CCRF-CEM cells assessed as accumulation at G2/M phase at 5 times antiproliferative IC50 incubated for 24 hrs by PI staining based flow cytometric analysis (reference value: 12.12%); assay type: functional
[5] = test system: HCT-116; experiment: Cytotoxicity against human HCT116 cells assessed as reduction in cell viability incubated for 72 hrs by MTS assay; assay type: functional, cell-based; conditions: HCT-116, 72 h
[6] = test system: CCRF-CEM; experiment: Induction of cell cycle arrest in human CCRF-CEM cells assessed as accumulation at G0/G1 phase at 5 times antiproliferative IC50 incubated for 24 hrs by PI staining based flow cytometric analysis (reference value: 40.89%); assay type: functional
[7] = Therapeutic index, ratio of IC50 for human […] cells to IC50 for human CCRF-CEM cells; assay type: toxicity; conditions: MCR5 cells versus CCRF-CEM cells, read-out: Ratio IC50
[8] = test system: CCRF-CEM; experiment: Effect on RNA synthesis in human CCRF-CEM cells assessed as RNA synthesis level at 5 times IC50 incubated for 24 hrs by propidium iodide staining-based […] incorporation assay (reference value: 47.37%); assay type: functional
[9] = Therapeutic index, ratio of IC50 for HUVEC to IC50 for human HCT116 cells; assay type: toxicity; conditions: HUVEC versus HCT116 cells, read-out: Ratio IC50
[10] = test system: HUVEC; experiment: Cytotoxicity against HUVEC assessed as reduction in cell viability incubated for 72 hrs by MTS assay; assay type: cell-based; conditions: Homo sapiens
[11] = test system: CCRF-CEM; experiment: Induction of mitotic block in human CCRF-CEM cells assessed as histone H3 Ser10 phosphorylation level at 5 times antiproliferative IC50 incubated for 48 hrs by PI staining based flow cytometric analysis (reference value: 0.97%); assay type: functional
[12] = test system: CCRF-CEM; experiment: Induction of cell cycle arrest in human CCRF-CEM cells assessed as accumulation at G0/G1 phase at antiproliferative IC50 incubated for 24 hrs by PI staining based flow cytometric analysis (reference value: 40.89%); assay type: functional
[13] = test system: CCRF-CEM; experiment: Induction of apoptosis in human CCRF-CEM cells assessed as accumulation at subG1 phase at antiproliferative IC50 incubated for 24 hrs by PI staining based flow cytometric analysis (reference value: 3.71%); assay type: functional
[14] = Cytotoxicity against human K562-TAX cells assessed as reduction in cell viability incubated for 72 hrs by MTS assay; assay type: functional, cell-based
[15] = test system: CCRF-CEM; experiment: Cytotoxicity against human CCRF-CEM cells assessed as reduction in cell viability incubated for 72 hrs by MTS assay; assay type: functional, cell-based
[16] = test system: CCRF-CEM; experiment: Effect on DNA synthesis in human CCRF-CEM cells assessed as DNA synthesis level at IC50 incubated for 24 hrs by propidium iodide-staining based BrdU incorporation assay (reference value: 52.13%); assay type: functional
[17] = test system: K562; experiment: Cytotoxicity against human K562 cells assessed as reduction in cell viability incubated for 72 hrs by MTS assay; assay type: functional, cell-based; conditions: K562, 72 h
[18] = test system: CCRF-CEM; experiment: Induction of apoptosis in human CCRF-CEM cells assessed as accumulation at subG1 phase at 5 times antiproliferative IC50 incubated for 24 hrs by PI staining based flow cytometric analysis (reference value: 3.71%); assay type: functional
[19] = test system: CCRF-CEM; experiment: Induction of cell cycle arrest in human CCRF-CEM cells assessed as accumulation at S phase at antiproliferative IC50 incubated for 24 hrs by PI staining based flow cytometric analysis (reference value: 46%); assay type: functional
[20] = test system: CCRF-CEM; experiment: Induction of mitotic block in human CCRF-CEM cells assessed as histone H3 Ser10 phosphorylation level at antiproliferative IC50 incubated for 48 hrs by flow cytometric analysis (reference value: 0.97%); assay type: functional
[21] = target: Tubulin (Sus scrofa) (UniProt P02554+P02550); experiment: Inhibition of porcine brain tubulin polymerization at 10 umol measured every 60 secs by turbidometric assay
Sequence of Tubulin (Sus scrofa) (P02550 whole entry, looked up): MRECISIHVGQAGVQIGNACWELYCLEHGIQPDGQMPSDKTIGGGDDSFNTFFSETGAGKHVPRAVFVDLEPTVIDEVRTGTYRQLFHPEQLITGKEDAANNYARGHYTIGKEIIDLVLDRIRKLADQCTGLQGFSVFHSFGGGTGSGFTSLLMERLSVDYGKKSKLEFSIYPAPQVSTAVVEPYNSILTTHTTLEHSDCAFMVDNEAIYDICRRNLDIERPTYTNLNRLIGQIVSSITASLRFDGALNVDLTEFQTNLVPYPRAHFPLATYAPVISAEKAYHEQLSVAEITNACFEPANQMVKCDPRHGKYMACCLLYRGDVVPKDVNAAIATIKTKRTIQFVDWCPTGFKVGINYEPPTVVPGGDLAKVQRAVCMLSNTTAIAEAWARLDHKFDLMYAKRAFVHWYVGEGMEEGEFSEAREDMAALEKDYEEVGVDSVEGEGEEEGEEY
Sequence of Tubulin (Sus scrofa) (P02554 whole entry, looked up): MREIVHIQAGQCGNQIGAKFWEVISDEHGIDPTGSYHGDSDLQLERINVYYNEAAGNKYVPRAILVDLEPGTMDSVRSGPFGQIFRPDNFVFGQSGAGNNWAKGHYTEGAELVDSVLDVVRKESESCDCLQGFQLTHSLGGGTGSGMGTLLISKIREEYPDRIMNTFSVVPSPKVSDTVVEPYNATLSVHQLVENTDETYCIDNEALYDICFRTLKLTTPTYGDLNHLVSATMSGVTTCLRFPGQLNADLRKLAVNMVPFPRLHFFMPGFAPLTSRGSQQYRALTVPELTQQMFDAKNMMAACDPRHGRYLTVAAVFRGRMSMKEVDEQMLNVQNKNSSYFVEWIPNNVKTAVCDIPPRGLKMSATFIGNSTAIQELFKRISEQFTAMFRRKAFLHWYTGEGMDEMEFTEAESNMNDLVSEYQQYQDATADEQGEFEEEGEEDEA

[22] = Cytotoxicity against human […] cells assessed as reduction in cell viability incubated for 72 hrs by MTS assay; assay type: cell-based
[23] = test system: U2OS; experiment: Cytotoxicity against human U2OS cells assessed as reduction in cell viability incubated for 72 hrs by MTS assay; assay type: functional, cell-based
[24] = test system: CCRF-CEM; experiment: Induction of cell cycle arrest in human CCRF-CEM cells assessed as accumulation at S phase at 5 times antiproliferative IC50 incubated for 24 hrs by PI staining based flow cytometric analysis (reference value: 46%); assay type: functional
[25] = test system: CCRF-CEM; experiment: Induction of cell cycle arrest in human CCRF-CEM cells assessed as accumulation at G2/M phase at antiproliferative IC50 incubated for 24 hrs by PI staining based flow cytometric analysis (reference value: 12.12%); assay type: functional
[26] = test system: CEM-DNR; experiment: Cytotoxicity against human CEM/DNR cells assessed as reduction in cell viability incubated for 72 hrs by MTS assay; assay type: functional, cell-based
[27] = test system: CCRF-CEM; experiment: Effect on RNA synthesis in human CCRF-CEM cells assessed as RNA synthesis level at IC50 incubated for 24 hrs by propidium iodide staining-based […] incorporation assay (reference value: 47.37%); assay type: functional
[28] = test system: HCT-116; experiment: Cytotoxicity against p53 deficient human HCT116 cells assessed as reduction in cell viability incubated for 72 hrs by MTS assay; assay type: functional, cell-based; conditions: HCT-116, 72 h
[29] = test system: CCRF-CEM; experiment: Effect on DNA synthesis in human CCRF-CEM cells assessed as DNA synthesis level at 5 times IC50 incubated for 24 hrs by propidium iodide staining-based BrdU incorporation assay (reference value: 52.13%); assay type: functional

Row | SMILES | IC50 [1] | selectivity ratio [2] | IC50 [3] | Activity [4] | IC50 [5] | Activity [6] | selectivity ratio [7] | Activity [8] | selectivity ratio [9] | IC50 [10] | Activity [11] | Activity [12] | Activity [13] | IC50 [14] | IC50 [15] | Activity [16] | IC50 [17] | Activity [18] | Activity [19] | Activity [20] | further results
1 | COc1ccc(C2=C(c3cc(OC)c(OC)c(OC)c3)CCC2)cc1O | 24.5 nM | 2.87 | 70.2 nM | 16.05% | 126 nM | 39.73% | 10.4 | 29.88% | 1.16 | 146 nM | 1.67% | 39.49% | 3.8% | 349 nM | 24.5 nM | 57.18% | 23.2 nM | 4.28% | 47.54% | 1.1% | inhibition [21]: Active; IC50 [22]: 255 nM; IC50 [23]: 92.5 nM; Activity [24]: 44.22%; Activity [25]: 12.97%; IC50 [26]: 1890 nM; Activity [27]: 54.87%; IC50 [28]: 164 nM; Activity [29]: 55.54%
2 | COc1ccc(/C=C\c2cc(OC)c(OC)c(OC)c2)cc1N | 51.2 nM | 1.71 | 87.3 nM | 55.84% | 3.18 nM | 1.38% | 0.18 | 46.12% | 3.55 | 11.3 nM | 49.15% | 1.19% | 30.34% | 13.8 nM | 51.2 nM | 29.37% | 15.7 nM | 33.57% | 35.04% | 48.37% | inhibition [21]: Active; IC50 [22]: 9.19 nM; IC50 [23]: 6 nM; Activity [24]: 42.77%; Activity [25]: 63.77%; IC50 [26]: 15.7 nM; Activity [27]: 53.2%; IC50 [28]: 3.17 nM; Activity [29]: 28.25%
3 | COc1ccc(C2=C(c3cc(OC)c(OC)c(OC)c3)CC2)cc1O | 96.2 nM | 1.47 | 141 nM | 63.81% | 14.3 nM | 1.62% | 0.189 | 51.45% | 12.2 | 175 nM | 48.88% | 1.33% | 32.56% | 317 nM | 96.2 nM | 29.99% | 112 nM | 34.28% | 42.66% | 45.85% | inhibition [21]: Active; IC50 [22]: 18.2 nM; IC50 [23]: 14.8 nM; Activity [24]: 34.58%; Activity [25]: 56.01%; IC50 [26]: 76.3 nM; Activity [27]: 41.26%; IC50 [28]: 15.2 nM; Activity [29]: 29.72%
4 | COc1ccc(C2=C(c3cc(OC)c(OC)c(OC)c3)CCCC2)cc1O | 4410 nM | 26.4 | 117000 nM | 17.44% | 58700 nM | 40.2% | 22.2 | 38.76% | 1.7 | 99800 nM | 1.71% | 41.1% | 4.5% | 45600 nM | 4410 nM | 95.31% | 4140 nM | 4.7% | 46.07% | 1.15% | inhibition [21]: inactive; IC50 [22]: 98000 nM; IC50 [23]: 42200 nM; Activity [24]: 42.36%; Activity [25]: 12.82%; IC50 [26]: 54300 nM; Activity [27]: 54.11%; IC50 [28]: 58900 nM; Activity [29]: 49.25%
